In article PMC4358367, “Structural basis of diverse membrane target recognitions by ankyrins” (eLife, 2014):
Where no end group is shown, it is not given here.

Tests used:
[1] = molecular target: T1, AnkG_repeats L366,F399,L432Q (Rattus norvegicus, UniProt O70511, F409Q/L376Q/L442Q); test: ITC binding to AnkG_repeats LFL mutant (site 3); details: in words
T1 construct: thioredoxin-His6 (N); made in house; host or cells: Escherichia coli BL21 (DE3)
Description: (§1) We next examined the interactions of AnkG_repeats with Nav1.2 and Nfasc using the structure of the ANK repeats/AS complex to design mutations specifically affecting each predicted site. […] To probe the binding sites of Nav1.2 and Nfasc on AnkG, we constructed AnkG_repeat mutants with the corresponding hydrophobic residues in binding site 1 (Phe131 and Phe164 in R4 and R5, termed ‘FF’), site 2 (Ile267 and Leu300 in R8 and R9; ‘IL’), and site 3 (Leu366, Phe399, and Leu432 in R11, R12, and R13; ‘LFL’) substituted with Gln (Figure 3D), and examined their binding to the two targets. […] The mutations in site 3 weakened ANK repeat binding to both targets (Figure 3F, Figure 3—figure supplement 3 and Figure 3—figure supplement 4). […] This conclusion is further supported by the binding of the two targets to various AnkG_repeat truncation mutants (Figure 3F, Figure 3—figure supplement 3 and Figure 3—figure supplement 4).
(§2) The coding sequences of AnkB_repeats (residues 28–873) were PCR amplified using the full-length human 220 kDa AnkB as the template. […]
(§3) Isothermal titration calorimetry (ITC) measurements were carried out on a VP-ITC MicroCal calorimeter (MicroCal, Northampton, MA) at 25°C. […] The titration data were analyzed using the program Origin 7.0 and fitted by the one-site binding model.

AnkG_repeats [2] = molecular target: T2, AnkG_repeats (Rattus norvegicus, UniProt O70511); test: Analytical gel filtration of AS-AnkG_repeats fusion with Nav1.2 or Nfasc ABD; format: binding; details: Superose 12 10/300 GL, 50 mM Tris, 100 mM NaCl, 1 mM EDTA, 1 mM DTT, pH 7.5
T2 construct: thioredoxin-His6 (N); made in house; host or cells: Escherichia coli BL21 (DE3)
T2 sequence (O70511 38-855): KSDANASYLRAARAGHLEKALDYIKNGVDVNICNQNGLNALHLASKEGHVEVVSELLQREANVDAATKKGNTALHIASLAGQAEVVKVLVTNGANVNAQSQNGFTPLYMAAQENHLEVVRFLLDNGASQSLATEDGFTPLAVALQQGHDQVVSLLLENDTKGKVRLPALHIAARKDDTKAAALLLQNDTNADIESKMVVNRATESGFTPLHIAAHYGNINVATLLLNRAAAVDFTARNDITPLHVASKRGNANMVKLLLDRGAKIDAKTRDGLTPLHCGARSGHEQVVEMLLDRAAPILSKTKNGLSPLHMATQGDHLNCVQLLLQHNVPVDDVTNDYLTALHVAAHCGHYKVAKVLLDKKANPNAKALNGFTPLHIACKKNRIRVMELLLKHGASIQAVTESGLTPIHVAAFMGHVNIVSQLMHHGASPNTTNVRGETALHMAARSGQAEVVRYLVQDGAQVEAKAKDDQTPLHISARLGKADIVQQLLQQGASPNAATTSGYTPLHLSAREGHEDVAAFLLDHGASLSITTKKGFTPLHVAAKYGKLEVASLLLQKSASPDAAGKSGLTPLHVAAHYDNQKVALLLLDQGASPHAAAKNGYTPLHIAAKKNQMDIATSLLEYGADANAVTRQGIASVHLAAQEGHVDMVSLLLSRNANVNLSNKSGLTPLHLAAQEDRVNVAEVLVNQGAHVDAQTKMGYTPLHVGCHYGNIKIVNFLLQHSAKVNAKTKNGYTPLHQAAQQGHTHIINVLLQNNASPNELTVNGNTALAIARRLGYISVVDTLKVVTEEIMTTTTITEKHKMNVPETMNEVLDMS
Description: (§4) The coding sequences of AnkB_repeats (residues 28–873) were PCR amplified using the full-length human 220 kDa AnkB as the template. The coding sequences of the AnkR constructs, including AnkR_repeats (residues 42–853), and the full length AnkR C-terminal domain (residues 1529–1907), were PCR amplified from a mouse muscle cDNA library. The coding sequence of AnkG_repeats (residues 38–855) were PCR amplified using the full-length rat 190 kDa AnkG as the template. The fusion construct of AnkR_AS and AnkB_repeats was made by standard two-step PCR with a coding sequence of thrombin recognition residues ‘GSLVPRGS’ as the linker. This construct was used to crystallize and determine the complex structure. The same strategy was used in making other fusion constructs, including the Nav1.2_ABD-C/AnkB_repeats_R1–9 fusion construct containing residues 1103–1129 from mouse Nav1.2 and human AnkB residues 28–318 followed by a capping sequence corresponding to the αB of R24 (residues 814–822) and the AnkR_AS/AnkG_repeats fusion construct. For truncation mutations of ANK repeats constructs, the same capping sequence was added to the appropriate region of the C-terminus of each construct for protein stabilization. Mouse Nav1.2 (NP_001092768.1) and mouse neurofascin (CAD65849.1) were used here for studying their interaction with ankyrins. […]

AnkG_repeats F131,F164Q = molecular target: T3, AnkG_repeats F131,F164Q (Rattus norvegicus, UniProt O70511, F141Q/F174Q); test: ITC binding to AnkG_repeats FF mutant (site 1); details: in words
T3 construct: thioredoxin-His6 (N); made in house; host or cells: Escherichia coli BL21 (DE3)
Description: as §1, §2, §3

AnkG_repeats I267,L300Q = molecular target: T4, AnkG_repeats I267,L300Q (Rattus norvegicus, UniProt O70511, I277Q/L310Q); test: ITC binding to AnkG_repeats IL mutant (site 2); details: in words
T4 construct: thioredoxin-His6 (N); made in house; host or cells: Escherichia coli BL21 (DE3)
Description: as §1, §2, §3

AnkG_repeats [3] = molecular target: T2, AnkG_repeats; test: ITC binding to AnkG_repeats WT; details: deduced from site mutants and truncations
Description: as §4, with “ankyrins. Peptides for mouse KCNQ2 (NP_034741.2, residues 826–845) and mouse Cav1.3 (NP_083257.2, residues 2134–2166) were commercially synthesized. For simplicity, we used human 220 kDa AnkB for the amino acid numbering throughout the manuscript. For the corresponding point mutations made on AnkG_repeats, each residue number should be increased by 10. All point mutations were created using the Quick Change site-directed mutagenesis kit and confirmed by DNA sequencing.” for “ankyrins.”
as §3

AnkB_repeats WT = molecular target: T5, AnkB_repeats WT (Homo sapiens, UniProt Q01484); test: Fluorescence polarization binding to AnkB_repeats WT; details: deduced from ANK repeats WT and site mutants
T5 construct: thioredoxin-His6 (N); made in house; host or cells: Escherichia coli BL21 (DE3)
T5 sequence (Q01484 28-873 isoform Q01484-2): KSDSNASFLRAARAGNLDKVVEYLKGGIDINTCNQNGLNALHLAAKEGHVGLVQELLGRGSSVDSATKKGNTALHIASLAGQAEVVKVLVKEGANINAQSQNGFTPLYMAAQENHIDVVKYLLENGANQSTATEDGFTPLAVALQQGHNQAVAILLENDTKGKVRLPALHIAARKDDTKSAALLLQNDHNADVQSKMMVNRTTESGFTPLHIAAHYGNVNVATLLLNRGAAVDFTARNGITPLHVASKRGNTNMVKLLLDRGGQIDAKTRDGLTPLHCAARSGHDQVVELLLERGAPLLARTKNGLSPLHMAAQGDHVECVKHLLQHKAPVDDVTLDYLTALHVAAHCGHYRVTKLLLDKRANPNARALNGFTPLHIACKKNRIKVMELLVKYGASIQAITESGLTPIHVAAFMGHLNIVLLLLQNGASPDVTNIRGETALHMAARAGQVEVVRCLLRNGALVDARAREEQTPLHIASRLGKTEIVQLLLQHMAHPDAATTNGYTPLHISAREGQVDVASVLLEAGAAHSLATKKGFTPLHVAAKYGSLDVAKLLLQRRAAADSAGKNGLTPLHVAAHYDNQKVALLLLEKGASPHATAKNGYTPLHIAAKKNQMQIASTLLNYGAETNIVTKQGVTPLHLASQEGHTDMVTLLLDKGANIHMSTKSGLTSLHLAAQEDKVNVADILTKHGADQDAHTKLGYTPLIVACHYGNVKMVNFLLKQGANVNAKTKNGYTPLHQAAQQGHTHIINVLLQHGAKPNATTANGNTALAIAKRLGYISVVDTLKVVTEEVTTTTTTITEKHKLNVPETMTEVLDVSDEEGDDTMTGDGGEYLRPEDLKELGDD
Description: as §4, with “stabilization.” for “stabilization. Mouse Nav1.2 (NP_001092768.1) and mouse neurofascin (CAD65849.1) were used here for studying their interaction with ankyrins.”
Fluorescence assays were performed on a PerkinElmer LS-55 fiuorimeter equipped with an automated polarizer at 25°C. […]

AnkR_repeats = molecular target: T6, AnkR_repeats (Mus musculus, UniProt Q02357); test: ITC binding to AnkR_repeats; details: VP-ITC, 25°C, 50 mM Tris, 100 mM NaCl, 1 mM EDTA, 1 mM DTT, pH 7.5, one-site binding model, ND = no detectable binding
T6 construct: thioredoxin-His6 (N); made in house; host or cells: Escherichia coli BL21 (DE3)
Description: as §4, with “construct.” for “construct. For truncation mutations of ANK repeats constructs, the same capping sequence was added to the appropriate region of the C-terminus of each construct for protein stabilization. Mouse Nav1.2 (NP_001092768.1) and mouse neurofascin (CAD65849.1) were used here for studying their interaction with ankyrins.”
as §3

AnkG R1-6 = molecular target: T7, AnkG R1-6 (Rattus norvegicus, UniProt O70511, DEL222-823); test: ITC binding to AnkG R1-6 truncation; details: 25°C, pH 7.5, one-site binding model
T7 construct: thioredoxin-His6 (N); made in house; host or cells: Escherichia coli BL21 (DE3)
Description: as §4, with “construct.” for “construct. For truncation mutations of ANK repeats constructs, the same capping sequence was added to the appropriate region of the C-terminus of each construct for protein stabilization. Mouse Nav1.2 (NP_001092768.1) and mouse neurofascin (CAD65849.1) were used here for studying their interaction with ankyrins.”
as §3

T6 sequence (Q02357 5-816): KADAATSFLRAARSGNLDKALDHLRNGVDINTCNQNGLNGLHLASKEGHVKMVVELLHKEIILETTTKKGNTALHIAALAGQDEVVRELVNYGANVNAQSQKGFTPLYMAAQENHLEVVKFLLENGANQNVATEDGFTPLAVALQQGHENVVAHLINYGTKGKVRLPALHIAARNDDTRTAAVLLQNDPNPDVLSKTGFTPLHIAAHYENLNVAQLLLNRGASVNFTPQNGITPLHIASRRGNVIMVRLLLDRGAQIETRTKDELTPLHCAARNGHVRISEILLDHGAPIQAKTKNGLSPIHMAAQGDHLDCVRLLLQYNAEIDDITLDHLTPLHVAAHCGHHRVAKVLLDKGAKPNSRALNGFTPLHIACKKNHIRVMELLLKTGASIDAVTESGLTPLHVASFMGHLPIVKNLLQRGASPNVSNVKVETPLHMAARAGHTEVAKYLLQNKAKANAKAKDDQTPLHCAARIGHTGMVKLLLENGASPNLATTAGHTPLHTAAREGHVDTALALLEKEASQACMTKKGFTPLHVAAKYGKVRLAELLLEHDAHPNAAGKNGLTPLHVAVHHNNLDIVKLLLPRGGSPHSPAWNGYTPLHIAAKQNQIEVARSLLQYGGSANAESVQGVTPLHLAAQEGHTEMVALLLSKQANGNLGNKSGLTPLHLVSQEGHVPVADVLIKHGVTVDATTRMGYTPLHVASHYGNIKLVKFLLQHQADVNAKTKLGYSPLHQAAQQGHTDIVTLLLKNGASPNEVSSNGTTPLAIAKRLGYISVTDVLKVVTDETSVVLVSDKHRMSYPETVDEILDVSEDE
T4 sequence (O70511 38-855 I277Q/L310Q): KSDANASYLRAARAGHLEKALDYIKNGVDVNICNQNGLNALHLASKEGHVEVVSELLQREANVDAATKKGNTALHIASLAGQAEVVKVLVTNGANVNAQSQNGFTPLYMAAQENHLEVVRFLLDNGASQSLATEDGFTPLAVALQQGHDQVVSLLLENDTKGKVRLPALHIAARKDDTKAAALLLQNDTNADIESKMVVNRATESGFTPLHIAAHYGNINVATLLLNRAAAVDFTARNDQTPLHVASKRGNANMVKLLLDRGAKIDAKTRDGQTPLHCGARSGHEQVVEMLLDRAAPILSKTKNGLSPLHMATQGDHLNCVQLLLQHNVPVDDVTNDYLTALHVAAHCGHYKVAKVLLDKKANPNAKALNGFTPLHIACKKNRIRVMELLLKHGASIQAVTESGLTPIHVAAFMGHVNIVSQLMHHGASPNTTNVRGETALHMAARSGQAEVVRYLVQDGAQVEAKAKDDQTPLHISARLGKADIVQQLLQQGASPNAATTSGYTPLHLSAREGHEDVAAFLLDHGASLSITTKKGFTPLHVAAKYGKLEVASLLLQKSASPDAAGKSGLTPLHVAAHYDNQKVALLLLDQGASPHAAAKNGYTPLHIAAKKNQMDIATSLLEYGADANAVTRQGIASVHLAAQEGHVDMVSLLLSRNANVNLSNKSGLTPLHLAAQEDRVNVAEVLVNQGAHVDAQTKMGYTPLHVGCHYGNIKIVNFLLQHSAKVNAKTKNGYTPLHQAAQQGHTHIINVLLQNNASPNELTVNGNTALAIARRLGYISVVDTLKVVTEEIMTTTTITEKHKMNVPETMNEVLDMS
T3 sequence (O70511 38-855 F141Q/F174Q): as the sequence (O70511 38-855 I277Q/L310Q) above, with F104Q, F137Q, Q240I, Q273L counted along it
T7 sequence (O70511 with tags, fused parts or gaps DEL222-823 limits assumed): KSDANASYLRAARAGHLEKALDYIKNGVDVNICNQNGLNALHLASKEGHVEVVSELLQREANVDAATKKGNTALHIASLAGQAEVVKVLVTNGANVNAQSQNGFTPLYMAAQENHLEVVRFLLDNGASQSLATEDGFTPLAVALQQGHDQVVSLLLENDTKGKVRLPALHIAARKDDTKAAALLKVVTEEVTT
T1 sequence (O70511 38-855 L376Q/F409Q/L442Q): as the sequence (O70511 38-855 I277Q/L310Q) above, with Q240I, Q273L, L339Q, F372Q, L405Q counted along it

SDDSLVDYGEGGEGQFNEDGSFIGQYTV [Nfasc_ABD]
effect of site 3 mutations on binding [1]: weakened
complex formation with AS-AnkG_repeats fusion protein (AnkG_repeats [2]): No complex peaks formed
effect of site 1 mutations on binding (AnkG_repeats F131,F164Q): no impact
effect of site 2 mutations on binding (AnkG_repeats I267,L300Q): significantly weakened
ANK repeat sites used for binding (AnkG_repeats [3]): sites 2 and 3

FITC-Cav1.3 peptide: mouse Cav1.3 (NP_083257.2, residues 2134–2166), commercially synthesized (NGDMGPISHRQDYELQDFGPGYSDEEPDPGREE; also: FITC label; UniProt Q99246 2134-2166, looked up, fragment)
ANK repeat sites used for binding (AnkB_repeats WT): primarily relies on site 2

CADQYWNEVAVIDAIPLAATEHDTMLEMSDMQVWSAGLTPSLVTAEDS [AnkR_AS]
Kd (AnkR_repeats): 360 ± 20 nM

TVTVPIAVGESDFENLNTEEFSSESDM [ABD-C (1103 - 1129)]
Kd (AnkG R1-6): 2300 ± 200 nM
